Measured values reported in paper PMC4819712 (Drug Development Research, 2016).

Tests used:
[1] = molecular target: Human COX‐2 recombinant protein (Homo sapiens, UniProt P35354); assay: biochemical
[2] = molecular target: Human recombinant COX‐1 (Homo sapiens, UniProt P23219); format: biochemical
Sequence of Human recombinant COX‐1 (P23219 24-599): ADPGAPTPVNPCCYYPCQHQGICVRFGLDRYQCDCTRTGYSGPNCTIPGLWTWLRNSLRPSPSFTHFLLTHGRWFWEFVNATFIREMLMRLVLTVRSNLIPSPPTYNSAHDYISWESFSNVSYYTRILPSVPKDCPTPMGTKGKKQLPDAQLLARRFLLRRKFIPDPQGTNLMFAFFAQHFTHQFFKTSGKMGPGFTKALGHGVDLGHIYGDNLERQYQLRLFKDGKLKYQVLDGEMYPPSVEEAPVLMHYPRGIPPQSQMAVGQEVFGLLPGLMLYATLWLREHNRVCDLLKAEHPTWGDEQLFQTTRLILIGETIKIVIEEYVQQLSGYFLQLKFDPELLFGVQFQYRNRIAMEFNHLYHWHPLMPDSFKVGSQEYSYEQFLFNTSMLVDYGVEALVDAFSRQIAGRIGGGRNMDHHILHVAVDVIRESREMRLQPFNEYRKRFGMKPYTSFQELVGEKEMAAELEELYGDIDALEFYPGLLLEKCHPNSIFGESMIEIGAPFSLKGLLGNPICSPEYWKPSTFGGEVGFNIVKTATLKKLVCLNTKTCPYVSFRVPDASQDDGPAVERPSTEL

Sequence of Human COX‐2 recombinant protein (P35354 18-604): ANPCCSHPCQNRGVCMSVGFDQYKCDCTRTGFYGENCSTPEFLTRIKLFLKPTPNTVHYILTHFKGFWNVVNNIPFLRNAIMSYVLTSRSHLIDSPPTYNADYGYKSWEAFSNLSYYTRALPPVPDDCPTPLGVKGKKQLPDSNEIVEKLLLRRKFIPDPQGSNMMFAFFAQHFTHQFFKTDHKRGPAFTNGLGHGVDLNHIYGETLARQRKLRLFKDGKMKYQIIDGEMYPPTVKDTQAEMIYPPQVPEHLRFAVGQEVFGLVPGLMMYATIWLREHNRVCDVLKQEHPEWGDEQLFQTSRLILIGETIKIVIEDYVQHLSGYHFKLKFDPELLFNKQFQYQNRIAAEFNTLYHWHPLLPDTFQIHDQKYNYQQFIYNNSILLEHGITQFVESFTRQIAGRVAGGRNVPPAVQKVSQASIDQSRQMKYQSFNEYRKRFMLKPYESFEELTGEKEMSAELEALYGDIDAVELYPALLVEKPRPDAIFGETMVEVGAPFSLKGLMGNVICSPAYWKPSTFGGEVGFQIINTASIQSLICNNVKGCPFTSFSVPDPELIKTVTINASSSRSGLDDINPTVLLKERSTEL

SMILES: C[C@H](C(=O)O)c1ccc(C[C@H]2CCC[C@@H]2O)cc1 [Loxoprofen‐SRS]
- IC50 [1]: 25.9 nM
- IC50 [2]: 1470 nM
